Source: ChEMBL document CHEMBL3244157, “Synthesis and antiinflammatory evaluation of substituted isophthalonitriles, trimesonitriles, benzonitriles, and terephthalonitriles” (J Med Chem, 1978)

How the values were obtained:
[1] = Toxicity in mouse assessed as overt effects; assay type: organism-based; settings: in vivo
Rattus norvegicus [2] = experiment: Antiinflammatory activity in Long Evans rat assessed as reduction of carrageenan-induced pedal edema at 25 mg/kg, po administered 1 hr prior to carrageenan challenge measured after 3 hrs relative to control; assay type: functional; design: scale not given: the % may be the effect or the level left
Rattus norvegicus [3] = experiment: Antiinflammatory activity in Long Evans rat assessed as reduction of carrageenan-induced pedal edema at 20 mg/kg, po administered 1 hr prior to carrageenan challenge measured after 3 hrs relative to control; assay type: functional; design: scale not given: the % may be the effect or the level left

Structure (SMILES) | LD50 [1] | Activity (Rattus norvegicus [2]) | Activity (Rattus norvegicus [3])
Cc1c(Cl)cccc1Nc1c(C#N)c(Cl)c(C#N)c(Cl)c1C#N | 42 mg/kg | 8% | 
N#Cc1c(Cl)c(C#N)c(Cl)c(C#N)c1Cl | 24 mg/kg |  | 0%
